Test results published in BindingDB's records for doi:10.1016/s0960-894x(98)00284-4 (Glaxowellcome, 1998).

Molecular target: Glutamate receptor ionotropic, NMDA 1 (Rattus norvegicus, UniProt P35439)
Assay: ChEBML_140329
Protocol: In vitro affinity of compound for the glycinergic site associated with NMDA receptor was assessed by inhibition of the binding of [3H]glycine

Ki | SMILES
7.3 nM | O=C(O)c1[nH]c2cc(Cl)cc(Cl)c2c1/C=C1\CCCN(c2ccccc2)C1=O
7.5 nM | O=C(O)c1[nH]c2cc(Cl)cc(Cl)c2c1/C=C1\CCN(c2ccccc2)C1=O
